From US20240270679A1, “LIPIDS FOR USE IN LIPID NANOPARTICLE FORMULATIONS” (Acuitas Therapeutics, Inc., priority 2022, published 2024)
Marks after values point to notes of the source that are not given here.

Assays:
[1] = Determination of pKa of formulated lipids (TNS fluorescence assay in lipid nanoparticles); format: physicochemical; conditions: lipid nanoparticles (compound/DSPC/cholesterol/PEG-lipid), lipid formulated in LNP (cationic lipid/DSPC/cholesterol/PEG-lipid), pH of half-maximal fluorescence
Description: As described elsewhere, the pKa of formulated lipids is correlated with the effectiveness of LNPs for delivery of nucleic acids (see Jayaraman et al, Angewandte Chemie, International Edition (2012), 51(34), 8529-8533; Semple et al, Nature Biotechnology 28, 172-176 (2010)). In some embodiments, the preferred range of pKa is ˜5 to ˜7. The pKa of each lipid is determined in lipid nanoparticles using an assay based on fluorescence of 2-(p-toluidino)-6-napthalene sulfonic acid (TNS). Lipid nanoparticles comprising compound of structure (I)/DSPC/cholesterol/PEG-lipid (50/10/38.5/1.5 or 47.5:10:40.7:1.8 mol %) in PBS at a concentration of 0.4 mM total lipid are prepared using the in-line process as described in Example 1. TNS is prepared as a 100 μM stock solution in distilled water. Vesicles are diluted to 24 μM lipid in 2 mL of buffered solutions containing 10 mM HEPES, 10 mM MES, 10 mM ammonium acetate, and 130 mM NaCl, where the pH ranged from 2.5 to 11. An aliquot of the TNS solution is added to give a final concentration of 1 μM and following vortex mixing fluorescence intensity is measured at room temperature in a SLM Aminco Series 2 Luminescence Spectrophotometer using excitation and emission wavelengths of 321 nm and 445 nm. A sigmoidal best fit analysis is applied to the fluorescence data and the pKa is measured as the pH giving rise to half-maximal fluorescence intensity.

[2] = tested on: human IgG in mouse serum; test: Immunoglobulin G (IgG) mRNA in vivo evaluation using lipid nanoparticle compositions (human IgG ELISA); design: species or system mice; conditions: tail vein injection, μg IgG/mL serum 24 hours after administration; for Serum IgG @ 0.3 mg/kg: 0.3 mg mRNA/kg; for Serum IgG @ 1.0 mg/kg: 1.0 mg mRNA/kg
Description: (§1) A lipid of structure (I), DSPC, cholesterol and PEG-lipid are solubilized in ethanol at a molar ratio of 50:10:38.5:1.5 or 47.5:10:40.7:1.8. Lipid nanoparticles (LNP) are prepared at a total lipid to mRNA weight ratio of approximately 10:1 to 40:1. Briefly, the mRNA is diluted to 0.2 mg/mL in 10 to 50 mM citrate buffer, pH 4 or 10 to 25 mM acetate buffer, pH 4. Syringe pumps are used to mix the ethanolic lipid solution with the mRNA aqueous solution at a ratio of about 1:5 to 1:3 (vol/vol) with total flow rates above 15 mL/min. The ethanol is then removed, and the external buffer replaced with PBS by dialysis. Finally, the lipid nanoparticles are filtered through a 0.2 µm pore sterile filter.
Studies are performed in 6-8-week-old CD-1/ICR mice (Envigo) according to guidelines established by an institutional animal care committee (ACC) and the Canadian Council on Animal Care (CCAC). Varying doses of mRNA-lipid nanoparticle are systemically administered by tail vein injection and animals euthanized at a specific time point (e.g., 24 hours) post-administration. The whole blood is collected, and the serum subsequentially separated by centrifuging the tubes of the whole blood at 2000×g for 10 minutes at 4° C. and stored at −80° C. until use for analysis.
For immunoglobulin G (IgG) ELISA (Life Diagnostics Human IgG ELISA kit), the serum samples are diluted at 100 to 15000 folds with 1× diluent solution. 100 μL of diluted serum is dispensed into anti-human IgG coated 96-well plate in duplicate alongside human IgG standards and incubated in a plate shaker at 150 rpm at 25° C. for 45 minutes. The wells are washed 5 times with 1× wash solution using a plate washer (400 μL/well). 100 μL of HRP conjugate is added into each well and incubated in a plate shaker at the same condition above. The wells are washed 5 times again with 1× wash solution using a plate washer (400 μL/well). 100 μL of TMB reagent is added into each well and incubated in a plate shaker at the same condition above. The reaction is stopped by adding 100 μL of Stop solution to each well. The absorbance is read at 450 nm (A450) with a microplate reader. The amount of human IgG in mouse serum is determined by plotting A450 values for the assay standard against human IgG concentration.
(§2) Representative compounds of the disclosure shown in Table 2 were formulated using the following molar ratio: 50% cationic lipid/10% distearoylphosphatidylcholine (DSPC)/38.5% Cholesterol/1.5% PEG lipid 2-[2-(ω-methoxy(polyethyleneglycol2000)ethoxy]-N,N-ditetradecylacetamide) or 47.5% cationic lipid/10% DSPC/40.7% Cholesterol/1.8% PEG lipid. Activity was determined by measuring luciferase expression in the liver 4 hours following administration via tail vein injection as described in Example 1 or by measuring the amount of human IgG in mouse serum as described in Example 2. The activity was compared at a dose of 1.0 or 0.5 or 0.3 mg mRNA/kg and expressed as ng luciferase/g liver measured 4 hours after administration, as described in Example 1 or as μg IgG/mL serum measured 24 hours after administration, as described in Example 2. Compound numbers in Table 2 refer to the compound numbers of Table 1.

[3] = tested on: luciferase expression in the liver; test: Luciferase mRNA in vivo evaluation using lipid nanoparticle compositions (liver luciferase expression); design: species or system mice; conditions: tail vein injection, ng luciferase/g liver 4 hours after administration; for Liver Luc @ 0.3 mg/kg: 0.3 mg mRNA/kg; for Liver Luc @ 1.0 mg/kg: 1.0 mg mRNA/kg
Description: as §1
Studies are performed in 6-8-week-old female C57BL/6 mice (Charles River) or 8-10-week-old CD-1 (Harlan) mice (Charles River) according to guidelines established by an institutional animal care committee (ACC) and the Canadian Council on Animal Care (CCAC). Varying doses of mRNA-lipid nanoparticle are systemically administered by tail vein injection and animals euthanized at a specific time point (e.g., 4 hours) post-administration. Liver and spleen are collected in pre-weighed tubes, weights determined, immediately snap frozen in liquid nitrogen, and stored at −80° C. until processing for analysis.
For liver, approximately 50 mg is dissected for analyses in a 2 mL FastPrep tubes (MP Biomedicals, Solon OH). ¼″ ceramic sphere (MP Biomedicals) is added to each tube and 500 μL of Glo Lysis Buffer—GLB (Promega, Madison WI) equilibrated to room temperature is added to liver tissue. Liver tissues are homogenized with the FastPrep24 instrument (MP Biomedicals) at 2×6.0 m/s for 15 seconds. Homogenate is incubated at room temperature for 5 minutes prior to a 1:4 dilution in GLB and assessed using SteadyGlo Luciferase assay system (Promega). Specifically, 50 μL of diluted tissue homogenate is reacted with 50 μL of SteadyGlo substrate, shaken for 10 seconds followed by 5-minute incubation and then quantitated using a CentroXS^3 LB 960 luminometer (Berthold Technologies, Germany). The amount of protein assayed is determined by using the BCA protein assay kit (Pierce, Rockford, IL). Relative luminescence units (RLU) are then normalized to total μg protein assayed. To convert RLU to ng luciferase a standard curve is generated with QuantiLum Recombinant Luciferase (Promega).
The FLuc mRNA (L-6107) from Trilink Biotechnologies will express a luciferase protein, originally isolated from the firefly, photinus pyralis. FLuc is commonly used in mammalian cell culture to measure both gene expression and cell viability. It emits bioluminescence in the presence of the substrate, luciferin. This capped and polyadenylated mRNA is fully substituted with 5-methylcytidine and pseudouridine.
as §2

Compound | pKa [1] | Serum IgG @ 0.3 mg/kg [2] [µg/mL] | Serum IgG @ 1.0 mg/kg [2] [µg/mL] | Liver Luc @ 0.3 mg/kg [3] [ng/g] | Liver Luc @ 1.0 mg/kg [3] [ng/g] | Liver Luc, determined at 0.5 mg/kg ([3]; 0.5 mg mRNA/kg (footnote *))
CCCCCCCCCCN(CCCCCCCCCC)C(=O)CCCCN(C)CCCCN(CCCCCCOC(=O)C(CCCCCC)CCCCCCCC)CCCCCCOC(=O)C(CCCCCC)CCCCCCCC (centres unmarked) [Compound I-48, ((4-((5-(didecylamino)-5-oxopentyl)(methyl)amino)butyl)azanediyl)bis(hexane-6,1-diyl)bis(2-hexyldecanoate)] | 6.37 | 4.4 ± 1.1 | 21.8 ± 5.0 | – | – | –
CCCCCCCCC(CCCCCC)COC(=O)CCCCCN(CCCCCC(=O)OCC(CCCCCC)CCCCCCCC)CCN(C)CCCCCC(=O)N(C)CCCCCCCC (centres unmarked) [Compound I-10, bis(2-hexyldecyl) 6,6′-((2-(methyl(6-(methyl(octyl)amino)-6-oxohexyl)amino)ethyl)azanediyl)dihexanoate] | 6.33 | – | – | 9794 ± 1750 | 43271 ± 18103 | –
CCCCCCCCC(CCCCCC)COC(=O)CCCCCN(CCCCCC(=O)OCC(CCCCCC)CCCCCCCC)CCN(C)CCCCCC(=O)NCC(CC)CCCC (centres unmarked) [Compound I-11, bis(2-hexyldecyl) 6,6′-((2-((6-((2-ethylhexyl)amino)-6-oxohexyl)(methyl)amino)ethyl)azanediyl)dihexanoate] | 6.27 | – | – | 16601 ± 5871 | 66075 ± 18868 | –
CCCCCCCCC(CCCCCC)COC(=O)CCCCCN(CCCCCC(=O)OCC(CCCCCC)CCCCCCCC)CCN(C)CCCCNC(=O)CCCCCCC (centres unmarked) [Compound I-1, bis(2-hexyldecyl) 6,6′-((2-(methyl(4-octanamidobutyl)amino)ethyl)azanediyl)dihexanoate] | 6.64 | – | – | 5497 ± 1457 | 13160 ± 5805 | –
CCCCCCCCC(CCCCCC)C(=O)OCCCCCCN(CCCCCCOC(=O)C(CCCCCC)CCCCCCCC)CCCCN(C)CCCCC(=O)N(CCCCCC)CCCCCC (centres unmarked) [Compound I-47, ((4-((5-(dihexylamino)-5-oxopentyl)(methyl)amino)butyl)azanediyl)bis(hexane-6,1-diyl)bis(2-hexyldecanoate)] | 6.45 | 15.3 ± 3.7 | 61.8 ± 11.5 | – | – | –
CCCCCCCCC(=O)NCCCN(C)CCN(CCCCCCCC(=O)OCC(CCCCCC)CCCCCCCC)CCCCCCCC(=O)OCC(CCCCCC)CCCCCCCC (centres unmarked) [Compound I-4, bis(2-hexyldecyl) 8,8′-((2-(methyl(3-nonanamidopropyl)amino)ethyl)azanediyl)dioctanoate] | 6.7 | – | – | 7747 ± 1565 | 24964 ± 8175 | –
CCCCCCCCC(CCCCCC)COC(=O)CCCCCCCN(CCCCCCCC(=O)OCC(CCCCCC)CCCCCCCC)CCN(C)CCCCNC(=O)CCCCCCC (centres unmarked) [Compound I-5, bis(2-hexyldecyl) 8,8′-((2-(methyl(4-octanamidobutyl)amino)ethyl)azanediyl)dioctanoate] | 6.68 | – | – | 6538 ± 11243 | 43609 ± 9207 | –
CCCCCCCCC(CCCCCC)C(=O)OCCCCCCN(CCCCCCOC(=O)C(CCCCCC)CCCCCCCC)CCCCN(C)CCCCC(=O)N(CCCCCCCC)CCCCCCCC (centres unmarked) [Compound I-51, ((4-((5-(dioctylamino)-5-oxopentyl)(methyl)amino)butyl)azanediyl)bis(hexane-6,1-diyl)bis(2-hexyldecanoate)] | 6.4 | 31.9 ± 6.5 | 131.5 ± 18.1 | – | – | –
CCCCCCCCCCNC(=O)CCCCCN(C)CCN(CCCCCC(=O)OCC(CCCCCC)CCCCCCCC)CCCCCC(=O)OCC(CCCCCC)CCCCCCCC (centres unmarked) [Compound I-7, bis(2-hexyldecyl) 6,6′-((2-((6-(decylamino)-6-oxohexyl)(methyl)amino)ethyl)azanediyl)dihexanoate] | 6.57 | – | – | 10812 ± 2335 | 44836 ± 12026 | –
CCCCCCCCC(CCCCCC)C(=O)OCCCCCCN(CCCCCCOC(=O)C(CCCCCC)CCCCCCCC)CCN(C)CCCC(=O)N(CCCC)CCCC (centres unmarked) [Compound I-8, ((2-((4-(dibutylamino)-4-oxobutyl)(methyl)amino)ethyl)azanediyl)bis(hexane-6,1-diyl)bis(2-hexyldecanoate)] | 6.13 | – | – | 16110 ± 2654 | 56927 ± 16125 | –
CCCCCCCCCCCCCC(=O)NCCCCN(C)CCN(CCCCCC(=O)OCC(CCCCCC)CCCCCCCC)CCCCCC(=O)OCC(CCCCCC)CCCCCCCC (centres unmarked) [Compound I-3, bis(2-hexyldecyl) 6,6′-((2-(methyl(4-tetradecanamidobutyl)amino)ethyl)azanediyl)dihexanoate] | 6.7 | – | – | – | – | 31 ± 6* ng/g
CCCCCCCC(=O)NCCCCN(C)CCN(CCCCCCCCCOC(=O)C(CCCC)CCCCCC)CCCCCCCCCOC(=O)C(CCCC)CCCCCC (centres unmarked) [Compound I-6, ((2-(methyl(4-octanamidobutyl)amino)ethyl)azanediyl)bis(nonane-9,1-diyl)bis(2-butyloctanoate)] | 6.56 | – | – | 12241 ± 3108 | 67044 ± 44033 | –
